Test results taken from patent US11931335B2, “Enhancing autophagy or increasing longevity by administration of urolithins or precursors thereof” (Amazentis SA, priority 2012, dated 2024).
Entries after “also recorded” stand apart in the source; their conditions may differ.

Tests used:
[1] = tested on: sir-2.1(ok434) mutant C. elegans; experiment: Lifespan assay, sir-2.1 mutant C. elegans; assay type: in vivo
Procedure: Lifespan assays were performed with (A) wild-type (N2), (B) sir-2.1(ok434) mutant, (C) aak-2(ok524), (D) daf-16(mu86), (E) eat-2(ad465) and (F) daf-2(e1370) mutant strains of C. elegans maintained during their full life on plates supplemented with either 50 μM of urolithin A or with a control treatment and seeded with OP50 bacteria. Control plates without urolithin A contained an equivalent concentration of DMSO. Worm lifespan assays were performed at 20° C.
sir-2.1: sir-2.1 encodes the mammalian homolog of the NAD-dependent deacetylase SIRT1 in C. elegans. SIR-2.1/SIRT1 activity is mediated by NAD^+ level and is well described to be involved in longevity regulation in yeast, C. elegans, and Drosophila in response to caloric restriction.

ModeK cells = experiment: Autophagy western blot in ModeK cells; assay type: cell-based, mouse; conditions: 10 μM, 20 μM and 50 NM, eight hours
Procedure: The ability of urolithins to induce autophagy in mammalian cells was also examined. ModeK cells derived from intestine, were cultured in RPMI 1640 medium including 4.5 g/L glucose, 10% fetal calf serum, 1 mM Sodium Pyruvate, 10 mM HEPES, 0.1 mM NEAA, 2-Mercaptoethanol Penicillin 100 UI/mL and Streptomycin 100 μg/mL. Cells were cultured at 37° C. under a 5% CO2 atmosphere. Cells were treated with increasing concentrations of urolithin A (10 μM, 20 μM and […]). Treatment was performed for eight hours, after which cells were lysed and prepared for Western Blot analysis. Protein expression levels were examined for autophagy related proteins LC3-I and II (Cell Signaling antibody #4108), p62 (Cell Signalling antibody #5114), AMPKα (Cell Signaling antibody #2603), and p-AMPKα(Cell Signaling antibody #2531). The housekeeping protein, HSP90 (BD Transduction Laboratories antibody #610418) level was measured as a loading control.

mouse C2C12 myoblasts = experiment: Autophagy western blot in C2C12 myoblasts; assay type: cell-based; conditions: 10 μM, 20 μM, and 50 μM, 16 hours
Procedure: C2C12 myoblast were cultured in Dulbecco's modified Eagle's medium (DMEM) including 4.5 g/L glucose, 20% fetal calf serum, and 50 μg/mL gentamicin. Urolithin A was dissolved in DMSO in a stock solution of […]. Cells were treated at final concentrations of urolithin A of 10 μM, 20 μM, and 50 μM for a period 16 hours. Control cells were treated with DMSO at an equivalent final concentration for the same period and served as the untreated control.
At the end of treatment, cells were lysed with RIPA buffer and applied to SDS-PAGE and analyzed by western blot. Protein expression levels were examined for autophagy-related proteins LC3-I and LC3-II (Cell Signaling antibody #4108), p62 (Cell Signaling antibody #5114), AMPKα (Cell Signaling antibody #2603), and p-AMPKα(Cell Signaling antibody #2531). The housekeeping protein, R-actin (Cell Signaling Antibody #4967) level was measured as a loading control.

[2] = tested on: undifferentiated C2C12 mouse myoblasts; experiment: LC3B flow cytometry in C2C12 myoblasts; assay type: cell-based; conditions: for LC3B expression (LC3B-FITC fluorescence): 10 μM, 50 μM and 100 μM, 24 hours, FIG. 25
Procedure: To determine the ability of urolithin A to induce autophagy in mouse muscle cells, undifferentiated C2C12 mouse myoblasts were seeded in T25 flasks and incubated overnight. Cells were incubated in 5% CO2 at 37° C. These cells were treated with one of the urolithins-urolithin A (UA), urolithin B (UB), urolithin C (UC) or urolithin D (UD)—dissolved in a 0.1% solution of DMSO for 24 hours. In one experiment UA, UB, UC and UD were dosed at a concentration of 100 μM for C2C12 myoblast treatment. In a separate study, C2C12 myoblasts were incubated at increasing concentrations of UA (10 μM, 50 μM and 100 μM). For each experiment a control culture was treated with 0.1% DMSO for the same period and served as the untreated control. In the final 30 minutes of incubation, lysosome degradation inhibitor was added to the culture. The cells were then washed with phosphate buffer solution and then treated with a 1% solution of trypsin enzyme to remove the adhesive cells from the cell culture dishes. The cells were then treated with EMD Millipore selective permeabilization reagent to permeabilize the cells so as to make the internal cellular proteins accessible to antibody treatment. Cells were then incubated with antibody to LC3B according to kit protocol (EMD Millipore FlowCellect™ Autophagy LC3 Antibody-based Assay Kit (Cat no. FCCH100171)). The cells were then washed and resuspended in the kit assay buffer. The resulting cells were then run through a flow cytometer and LC3B-FITC fluorescence was quantified to measure the level of LC3B in C2C12 cells for the various treatments. When cells undergo autophagy their intracellular levels of LC3-II increase which is detected by this method. This autophagy can be detected by fluorescent antibody labeling of LC3B, which can be measured quantitatively using flow cytometry. An increase in cellular autophagy is reflected by an increasing signal in the histogram of LC3B FITC.

aged C57BL/6J mice = experiment: Locomotor activity by infrared detection in aged mice; assay type: in vivo, mouse; conditions: 50 mg/kg/day, 34 weeks, 12 hour dark period, FIG. 23
Procedure: Locomotor activity may be also assessed by measuring animal movements using infrared detection. To determine the effects of urolithin A on spontaneous locomotor activity in aged animals, 16-month-old C57BL/6J mice were treated with either a standard rodent diet or a diet containing urolithin A mixed with food to reach a dosing of 50 mg/kg/day delivered to mice. Following 34 weeks of treatment with urolithin A, mice were placed in a locomotor activity monitoring system, TSE Systems. Infrared transmitters and receivers are placed in the x, y, and z axis. Interruption of the infrared beams in the x, y axis by the passage of the mouse, allows for a measurement of the horizontal movement (ambulation). Interruption of the infrared beams in the z axis by the mouse, allows for the measurement of rearing behavior. Each beam interruption results in one count being recorded. Total counts were measured for each 30 minute period over a two day period. The total counts observed during the 12 hour dark period, which corresponds to the time of highest activity in mice, were summed for each animal.

O=c1oc2cc(O)ccc2c2ccc(O)cc12 [Urolithin A, urolithin A]
Median lifespan ([1]; sir-2.1(ok434), 50 μM UA): 23 days | Lifespan extension compared to control (%) ([1]; sir-2.1(ok434), 50 μM UA vs 1% DMSO): +9.5% | activity of urolithin A on the extension of median lifespan ([1]; sir-2.1 mutant): completely suppressed | levels of p62 (ModeK cells): decreased | ratio of LC3-II/LC3-I vs vehicle-treated cells (ModeK cells; FIG. 14): ≤ 10 fold | levels of p62 (mouse C2C12 myoblasts): decrease | ratio of pAMPKα/AMPKα (mouse C2C12 myoblasts): increasing several fold | ratio of LC3-II to LC3-I (mouse C2C12 myoblasts; FIG. 16): dose-dependent increase | LC3B expression (LC3B-FITC fluorescence) [2]: dose dependent | LC3B expression (LC3B-FITC fluorescence) ([2]; listed as UA): dose response | LC3B signal (shift of the histogram) ([2]; 100 μM, 24 hrs, FIG. 26, listed as UA): increasing signal of LC3B; also recorded: increase in autophagy | increase in ambulation (aged C57BL/6J mice): 14% | increase in rearing (aged C57BL/6J mice): 25%
